Assay results as given in US10604512B2, “3-(1H-indol-2-yl)-1H-indazoles and therapeutic uses thereof” (Samumed, LLC, priority 2015, dated 2020).

How the values were obtained:
Assay type in all cases: cell-based
[1] = test system: Wnt activity (Sp5-Luc reporter, TCF/LEF binding sites) in SW480 colon carcinoma cells; experiment: Screening assay for Wnt activity: Sp5-Luc reporter gene assay in stably transduced SW480 colon carcinoma cells; conditions: Homo sapiens, overnight incubation, 10-point curve from 10 μM
Description: The screening assay for Wnt activity is described as follows. Reporter cell lines can be generated by stably transducing cancer cell lines (e.g., colon cancer) or primary cells (e.g., IEC-6 intestinal cells) with a lentiviral construct that includes a Wnt-responsive promoter driving expression of the firefly luciferase gene.
SW480 colon carcinoma cells were transduced with a lentiviral vector expressing luciferase with a human Sp5 promoter consisting of a sequence of eight TCF/LEF binding sites. SW480 cells stably expressing the Sp5-Luc reporter gene and a hygromycin resistance gene were selected by treatment with 150 μg/mL of hygromycin for 7 days. These stably transduced SW480 cells were expanded in cell culture and used for all further screening activities. Each compound was dissolved in DMSO as a 10 mM stock and used to prepare compound source plates. Serial dilution (1:3, 10-point dose-response curves starting from 10 μM) and compound transfer was performed using the ECHO 550 (Labcyte, Sunnyvale, Calif.) into 384-well white solid bottom assay plates (Greiner Bio-One) with appropriate DMSO backfill for a final DMSO concentration of 0.1%. For Sp5-Luc reporter gene assays, the cells were plated at 4,000 cells/well in 384-well plates with medium containing 1% fetal bovine serum and incubated overnight at 37° C. and 5% CO2. Following incubation, 20 μl of BrightGlo luminescence reagent (Promega) was added to each well of the 384-well assay plates. The plates were placed on an orbital shaker for 2 min and then luminescence was quantified using the Envision (Perkin Elmer) plate reader. Readings were normalized to DMSO only treated cells, and normalized activities were utilized for EC50 calculations using the dose-response log (inhibitor) vs. response variable slope (four parameters) nonlinear regression feature available in GraphPad Prism 5.0 (or Dotmatics). For EC50 of >10 μM, the percent inhibition at 10 μM is provided.

[2] = test system: Primary human fibroblasts derived from IPF patients (LL29 cells) treated with TGF-β1; experiment: Inhibition of the fibrotic process: αSMA staining in TGF-β1-treated primary human fibroblasts from IPF patients (LL29 cells); conditions: Fibroblast, 96 h, % αSMA-positive LL29 cells, TGF-β1 20 ng/mL, 4 days
Description: Representative compounds were screened using primary human fibroblasts (derived from IPF patients) treated with TGF-β1 to determine their ability to inhibit the fibrotic process.
Primary human fibroblasts derived from IPF patients (LL29 cells) [^1Xiaoqiu Liu, et. al., “Fibrotic Lung Fibroblasts Show Blunted Inhibition by cAMP Due to Deficient cAMP Response Element-Binding Protein Phosphorylation”, Journal of Pharmacology and Experimental Therapeutics (2005), 315(2), 678-687; ^2Watts, K. L., et. al., “RhoA signaling modulates cyclin D1 expression in human lung fibroblasts; implications for idiopathic pulmonary fibrosis”, Respiratory Research (2006), 7(1), 88] were obtained from American Type Culture Collection (ATCC) and expanded in F12 medium supplemented with 15% Fetal Bovine Serum and Penicillin/Streptomycin.
Each compound was dissolved in DMSO as a 10 mM stock and used to prepare compound source plates. Serial dilution (1:2, 11-point dose-response curves from 10 μM to […]) and compound transfer was performed using the ECHO 550 (Labcyte, Sunnyvale, Calif.) into 384-well clear bottom assay plates (Greiner Bio-One) with appropriate DMSO backfill for a final DMSO concentration of 0.1%. LL29 cells are plated at 1,500 cells/well in 80 μL/well F12 medium supplemented with 1% Fetal Bovine Serum. One hour after addition of the cells, TGF-β1 (Peprotech; 20 ng/mL) was added to the plates to induce fibrosis (ref 1 and 2 above). Wells treated with TGF-β1 and containing DMSO were used as controls. Cells were incubated at 37° C. and 5% CO2 for 4 days. Following incubation for 4 days, SYTOX green nucleic acid stain (Life Technologies [Thermo Fisher Scientific]) was added to the wells at a final concentration of 1 μM and incubated at room temperature for 30 min. Cells were then fixed using 4% formaldehyde (Electron Microscopy Sciences), washed 3 times with PBS followed by blocking and permeabilization using 3% Bovine Serum Albumin (BSA; Sigma) and 0.3% Triton X-100 (Sigma) in PBS. Cells were then stained with antibody specific to α-smooth muscle actin (αSMA; Abcam) (ref 1 and 2 above) in 3% Bovine Serum Albumin (BSA; Sigma) and 0.3% Triton X-100 (Sigma) in PBS, and incubated overnight at 4° C. Cells were then washed 3 times with PBS, followed by incubation with Alexa Flor-647 conjugated secondary antibody (Life Technologies [Thermo Fisher Scientific]) and DAPI at room temperature for 1 hour. Cells were then washed 3 times with PBS and plates were sealed for imaging. αSMA staining was imaged by excitation at 630 nm and emission at 665 nm and quantified using the Compartmental Analysis program on the CellInsight CX5 (Thermo Scientific). Dead or apoptotic cells were excluded from analysis based on positive SYTOX green staining. % of total cells positive for αSMA were counted in each well and normalized to the average of 11 wells treated with TGF-β1 on the same plate using Dotmatics' Studies Software. The normalized averages (fold change over untreated) of 3 replicate wells for each compound concentration were used to create dose-responses curves and EC50 values were calculated using non-linear regression curve fit in the Dotmatics' Studies Software. For EC50 of >10 μM, the percent inhibition at 10 μM is provided.

IL-6 = experiment: Inhibition of IL-6 in LPS-stimulated THP-1 human monocyte cells (HTRF); conditions: IL-6 inhibition, LPS-stimulated THP-1 cells, HTRF
Description: Human monocyte cell line (THP-1 cells; Catalog # TIB-202, ATCC, Manassas, Va.) were cultured in Roswell Park Memorial Institute (RPMI) 1640 Medium (Catalog #21870-100, Buffalo, N.Y.) with 1% L-glutamine, 1% HEPES, 1% Sodium Pyruvate, 2% Sodium Bicarbonate supplemented with 100 units/mL penicillin, 50 μg/mL streptomycin, 2-mercaptoethanol (0.05 mM) [basal medium] and 10% fetal bovine serum (Catalog #16140089, Life Technologies, Carlsbad, Calif.) at 37° C. and 5% CO2.
THP-1 cells were cultured in basal media with 1% FBS for 24 hours before the start of the assay. Each compound was dissolved in DMSO as a 10 mM stock and used to prepare compound source plates. Serial dilution (1:3, 10-point dose-response curves starting from 10 μM) and compound transfer was performed using the ECHO 550 (Labcyte, Sunnyvale, Calif.) into 384-well white low volume assay plates (Greiner Bio-One) with appropriate DMSO backfill for a final DMSO concentration of 0.1%. THP-1 cells were plated at 5000 cells/well in the 384-well plates and incubated at 37° C. for 2 h. 500 ng/mL of LPS was added after 2 hours and cells were incubated for another 22 hours at 37° C. Plates were spun in a centrifuge for 1 minute at […] and a mixture of anti-IL6 XL665, and anti-IL6 Cryptate diluted in reconstitution buffer (Cisbio Inc.) was added to each well. Following incubation for 3 hrs at room temperature, Homogeneous Time-Resolved Fluorescence (HTRF) was measured using the Envision (Perkin Elmer) at 665 nm and […]. The ratio of fluorescence at 665 nm to 620 nm was used as a readout for IL6 quantification. All samples were processed in duplicate. Readings were normalized to DMSO treated cells and normalized activities were utilized for EC50 calculations using the dose-response log (inhibitor) vs. response variable slope (four parameters) nonlinear regression feature available in GraphPad Prism 5.0 (or Dotmatics). For EC50 of >10 μM, the percent inhibition at 10 μM is provided.

SW480 colon cancer cells = experiment: Cell viability assay (CellTiter-Blue) in SW480 colon cancer cells; conditions: Homo sapiens, 96 h, four days, CellTiter-Blue
Description: Representative compounds were screened using the following assay procedure to assess the effect on cell viability as described below.
Each compound was dissolved in DMSO as a 10 mM stock and used to prepare compound source plates. Serial dilution (1:3, 8-point dose-response curves from 10 μM to 0.0045 μM) and compound transfer was performed using the ECHO 550 (Labcyte, Sunnyvale, Calif.) into 96-well clear bottom, black-walled plates (Corning-Costar).
Approximately 2×10^3 SW480 colon cancer cells were seeded into each well and allowed to incubate in the presence or absence of compound for four days at 37° C./5% CO2. Eight replicates of DMSO-treated cells served as controls and cells treated with compound were performed in duplicate.
After incubation, 20 μL of CellTiter-Blue (Promega) was added to each well allowed to incubate for approximately 3 hours. This reagent was a buffered solution which contains resazurin, metabolically active cells were able to reduce rezarurin (blue) into resorufin (pink) which was highly fluorescent. This measured fluorescence was used as a readout for cell viability.
After incubation, the plates were read at Ex 560 nm Em 590 nm (Cytation 3, BioTek). Dose-response curves were generated and EC50 concentration values were calculated using non-linear regression curve fit in the GraphPad Prism (San Diego, Calif.) or Dotmatics' Studies Software (Bishops Stortford, UK). For EC50 of >10 μM, the percent inhibition at 10 μM is provided.

| EC50 [1] [nM] | EC50 (IL-6) [nM] | EC50 (SW480 colon cancer cells) [nM] | SMILES | EC50 [2] [nM] |
| --- | --- | --- | --- | --- |
| 450 | 306 | 1630 | CC(C)CC(=O)Nc1cncc(-c2ccc3[nH]nc(-c4cc5c(-c6ccncc6)cccc5[nH]4)c3c2)c1 [Compound 114, 3-Methyl-N-(5-(3-(4-(pyridin-4-yl)-1H-indol-2-yl)-1H-indazol-5-yl)pyridin-3-yl)butanamide] | 331 |
| 185 | 164 | 918 | CC(C)CC(=O)Nc1cncc(-c2ccc3[nH]nc(-c4cc5c(-c6ccccn6)cccc5[nH]4)c3c2)c1 [Compound 142, 3-Methyl-N-(5-(3-(4-(pyridin-2-yl)-1H-indol-2-yl)-1H-indazol-5-yl)pyridin-3-yl)butanamide] | 312 |
| 525 | 529 | 1000 | CCNCc1cncc(-c2ccc3[nH]nc(-c4cc5c(-c6ccccn6)cccc5[nH]4)c3c2)c1 [Compound 146, N-((5-(3-(4-(Pyridin-2-yl)-1H-indol-2-yl)-1H-indazol-5-yl)pyridin-3-yl)methyl)ethanamine] | 1410 |
| 360 | 314 | 1740 | O=C(Nc1cncc(-c2ccc3[nH]nc(-c4cc5c(-c6ccccn6)cccc5[nH]4)c3c2)c1)C1CCCC1 [Compound 162, N-(5-(3-(4-(Pyridin-2-yl)-1H-indol-2-yl)-1H-indazol-5-yl)pyridin-3-yl) cyclopentanecarboxamide] | 266 |
| 469 | 7150 | 1840 | CCCC(=O)Nc1cncc(-c2ccc3[nH]nc(-c4cc5c(N6CCCCC6)cccc5[nH]4)c3c2)c1 [Compound 185, N-(5-(3-(4-(Piperidin-1-yl)-1H-indol-2-yl)-1H-indazol-5-yl)pyridin-3-yl) butyramide] | 682 |

The next lines start with the compound.

| SMILES | EC50 [1] [nM] | EC50 (IL-6) [nM] | EC50 (SW480 colon cancer cells) [nM] | EC50 [2] [nM] |
| --- | --- | --- | --- | --- |
| CC(C)(C)CC(=O)Nc1cncc(-c2ccc3[nH]nc(-c4cc5c(-c6cccnc6)cccc5[nH]4)c3c2)c1 [Compound 100, 3,3-Dimethyl-N-(5-(3-(4-(pyridin-3-yl)-1H-indol-2-yl)-1H-indazol-5-yl)pyridin-3-yl)butanamide] | 475 | 174 | 1870 | 449 |
| O=C(Nc1cncc(-c2ccc3[nH]nc(-c4cc5c(-c6cccnc6)cccc5[nH]4)c3c2)c1)C1CCC1 [Compound 105, N-(5-(3-(4-(Pyridin-3-yl)-1H-indol-2-yl)-1H-indazol-5-yl)pyridin-3-yl) cyclobutanecarboxamide] | 110 | 174 | 597 | 144 |
| CC(C)(C)C(=O)Nc1cncc(-c2ccc3[nH]nc(-c4cc5c(-c6ccncc6)cccc5[nH]4)c3c2)c1 [Compound 120, N-(5-(3-(4-(Pyridin-4-yl)-1H-indol-2-yl)-1H-indazol-5-yl)pyridin-3-yl) pivalamide] | 600 | 445 | 1450 | 218 |
| c1ccc(CNCc2cncc(-c3ccc4[nH]nc(-c5cc6c(-c7ccccn7)cccc6[nH]5)c4c3)c2)cc1 [Compound 164, N-Benzyl-1-(5-(3-(4-(pyridin-2-yl)-1H-indol-2-yl)-1H-indazol-5-yl)pyridin-3-yl)methanamine] | 564 | 214 | 2290 | 191 |
| Cc1ccncc1-c1ccc2[nH]nc(-c3cc4c(N5CCCCC5)cccc4[nH]3)c2c1 [Compound 173, 5-(4-Methylpyridin-3-yl)-3-(4-(piperidin-1-yl)-1H-indol-2-yl)-1H-indazole] | 865 | 4310 | 1980 | 1780 |
| O=C(Cc1ccccc1)Nc1cncc(-c2ccc3[nH]nc(-c4cc5c(N6CCCCC6)cccc5[nH]4)c3c2)c1 [Compound 178, 2-Phenyl-N-(5-(3-(4-(piperidin-1-yl)-1H-indol-2-yl)-1H-indazol-5-yl)pyridin-3-yl)acetamide] | 811 | 1290 | 3720 | 989 |
